Results published in patent US12459922B2 (Gilead Sciences, Inc., priority 2022, dated 2025).

What was measured:
PARP7 = target: T1, PARP7 (Homo sapiens, UniProt Q7Z3E1); test: Probe Displacement Assay for PARP7 (MSD electrochemiluminescent, biotinylated probe RBNO11147); conditions: displacement of biotinylated probe RBNO11147 from PARP7 NAD+-binding site; read-out: MSD ProbeDisp PARP7 IC50
T1 sequence (Q7Z3E1 1-657): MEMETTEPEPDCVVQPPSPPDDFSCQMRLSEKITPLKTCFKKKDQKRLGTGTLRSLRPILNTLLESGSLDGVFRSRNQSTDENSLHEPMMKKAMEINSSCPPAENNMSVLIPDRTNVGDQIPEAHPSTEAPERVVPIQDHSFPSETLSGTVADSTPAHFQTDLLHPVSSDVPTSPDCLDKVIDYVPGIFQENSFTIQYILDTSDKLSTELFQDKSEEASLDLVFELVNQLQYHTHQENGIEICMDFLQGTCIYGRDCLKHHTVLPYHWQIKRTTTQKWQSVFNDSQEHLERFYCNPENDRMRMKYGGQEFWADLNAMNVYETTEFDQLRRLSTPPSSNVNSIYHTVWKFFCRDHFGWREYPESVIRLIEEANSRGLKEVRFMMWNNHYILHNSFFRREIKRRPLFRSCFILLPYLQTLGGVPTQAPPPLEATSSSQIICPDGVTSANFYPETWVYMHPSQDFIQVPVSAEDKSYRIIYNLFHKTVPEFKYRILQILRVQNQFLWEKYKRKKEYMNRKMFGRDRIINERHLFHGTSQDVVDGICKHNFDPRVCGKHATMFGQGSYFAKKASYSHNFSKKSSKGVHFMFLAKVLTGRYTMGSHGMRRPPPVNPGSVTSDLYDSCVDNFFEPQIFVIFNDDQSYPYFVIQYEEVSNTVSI
Description: Displacement of a biotinylated probe (RBNO11147; Wigle et al., Cell Chemical Biology, 2020, pp. 877-887) from the PARP7 NAD+-binding site was measured in vitro using a Mesoscale Discovery electrochemiluminescent assay. […] Next, 10 ml of 10 nM PARP7 protein incubated for 1 hour at room temperature with a dose response curve of each test compound in a Greiner LDV polypropylene plate (#781201) is added to the MSD plate containing the immobilized probe. The interaction is allowed to reach equilibrium for 1.5 hours, and then 10 ml of SULFO-TAG labeled anti-GST antibody (Cat #R32AA-1) is added to each well and allowed to incubate for an additional 1.5 hours at room temperature. Finally, 10 ml of MSD read buffer T (4×, Cat. #R92C-1) is added to each well using a Bravo liquid handler to prevent air bubbles in the wells, and the plates are subsequently read in an MSD instrument. Light intensity is then measured to quantify the amount of PARP7 bound to the immobilized probe on the plate.

[1] = tested on: endogenous cellular STAT1 (phosphorylated at Tyr701) in NCI-H1373 cells; test: Phospho-STAT1 (Tyr701) LANCE Ultra TR-FRET Detection Assay; type: cell-based; conditions: Homo sapiens, NCI-H1373, 48 h, phospho-STAT1 (Tyr701) induction, read-out: NH1373 pSTAT1 EC50

| Structure (SMILES) | IC50 (PARP7) [nM] | EC50 [1] [nM] |
| --- | --- | --- |
| C[C@@H](CCCn1ncc2cc(-c3ncc(C(F)(F)F)cn3)ccc2c1=O)Nc1cn[nH]c(=O)c1C(F)(F)F [Example 4, 2-[(4S)-4-[[6-oxo-5-(trifluoromethyl)-1H-pyridazin-4-yl]amino]pentyl]-6 [5-(trifluoromethyl)pyrimidin-2-yl]phthalazin-1-one] | 0.2 | 95.6 |
| C[C@@H](CCCn1ccc2cc(-c3ncc(C(F)(F)F)cn3)ccc2c1=O)Nc1cn[nH]c(=O)c1C(F)(F)F [Example 5, 2-[(4S)-4-[[6-oxo-5-(trifluoromethyl)-1H-pyridazin-4-yl]amino]pentyl]-6-[5-(trifluoromethyl)pyrimidin-2-yl]isoquinolin-1-one] | 0.3 | 143 |
| C[C@@H](CCCn1ccc2c(F)c(-c3ncc(C(F)(F)F)cn3)ccc2c1=O)Nc1cn[nH]c(=O)c1C(F)(F)F [Example 6, 5-fluoro-2-[(4S)-4-[[6-oxo-5-(trifluoromethyl)-1H-pyridazin-4-yl]amino]pentyl]-6-[5-(trifluoromethyl)pyrimidin-2-yl]isoquinolin-1-one] | 0.7 | 434 |
| C[C@@H](CCCn1ccc2cc(-c3ccc(C(F)(F)F)cn3)c(F)cc2c1=O)Nc1cn[nH]c(=O)c1C(F)(F)F [Example 9, 7-fluoro-2-[(4S)-4-[[6-oxo-5-(trifluoromethyl)-1H-pyridazin-4-yl]amino]pentyl]-6-[5-(trifluoromethyl)-2-pyridyl]isoquinolin-1-one] | 0.4 | 92.1 |
| C[C@@H](CCCn1ccc2c(F)c(-c3ccc(C(F)(F)F)cn3)ccc2c1=O)Nc1cn[nH]c(=O)c1C(F)(F)F [Example 10, 5-fluoro-2-[(4S)-4-[[6-oxo-5-(trifluoromethyl)-1H-pyridazin-4-yl]amino]pentyl]-6-[5-(trifluoromethyl)-2-pyridyl]isoquinolin-1-one] | 0.7 | 291 |
| C[C@@H](CCCn1ccc2cc(-c3ncc(C(F)(F)F)cn3)cnc2c1=O)Nc1cn[nH]c(=O)c1C(F)(F)F [Example 12, 7-[(4S)-4-[[6-oxo-5-(trifluoromethyl)-1H-pyridazin-4-yl]amino]pentyl]-3-[5-(trifluoromethyl)pyrimidin-2-yl]-1,7-naphthyridin-8-one] | 23 | 10000 |
| C[C@@H](CCCn1ccc2cc(-c3ccc(C(F)(F)F)cn3)ncc2c1=O)Nc1cn[nH]c(=O)c1C(F)(F)F [Example 13, 2-[(4S)-4-[[6-oxo-5-(trifluoromethyl)-1H-pyridazin-4-yl]amino]pentyl]-6-[5 (trifluoromethyl)-2-pyridyl]-2,7-naphthyridin-1-one] | 3.7 | 10000 |
| C[C@@H](CCCn1ccc2nc(-c3ccc(C(F)(F)F)cn3)ccc2c1=O)Nc1cn[nH]c(=O)c1C(F)(F)F [Example 14] | 0.5 | 94.3 |
| CC(=O)c1c(N[C@@H](C)CCCn2ccc3cc(-c4ncc(C(F)(F)F)cn4)ccc3c2=O)cn[nH]c1=O [Example 15, 2-[(4S)-4-[(5-acetyl-6-oxo-1H-pyridazin-4-yl)amino]pentyl]-6-[5-(trifluoromethyl)pyrimidin-2-yl]isoquinolin-1-one] | 0.3 | 576 |
| C[C@@H](CCCn1ccc2cc(-c3ccc(OC(F)F)cn3)cc(F)c2c1=O)Nc1cn[nH]c(=O)c1C(F)(F)F [Example 17, (S)-6-(5-(difluoromethoxy)pyridin-2-yl)-8-fluoro-2-(4-((6-oxo-5-(trifluoromethyl)-1,6-dihydropyridazin-4-yl)amino)pentyl)isoquinolin-1(2H)-one] | 0.4 | 117 |
| C[C@@H](CCCn1ccc2cc(-c3ccc(C#N)cn3)cc(F)c2c1=O)Nc1cn[nH]c(=O)c1C(F)(F)F [Example 18, (S)-6-(8-fluoro-1-oxo-2-(4-((6-oxo-5-(trifluoromethyl)-1,6-dihydropyridazin-4-yl)amino)pentyl)-1,2-dihydroisoquinolin-6-yl)nicotinonitrile] | 0.4 | 164 |
| C[C@@H](CCCn1ccc2cc(-c3ccc(F)cn3)cc(F)c2c1=O)Nc1cn[nH]c(=O)c1C(F)(F)F [Example 19, (S)-8-fluoro-6-(5-fluoropyridin-2-yl)-2-(4-((6-oxo-5-(trifluoromethyl)-1,6-dihydropyridazin-4-yl)amino)pentyl)isoquinolin-1(2H)-one] | 0.3 | 74.1 |
| C[C@@H](CCCn1ccc2cc(-c3cnc(C(F)(F)F)cn3)c(F)cc2c1=O)Nc1cn[nH]c(=O)c1C(F)(F)F [Example 21, 7-fluoro-2-[(4S)-4-[[6-oxo-5-(trifluoromethyl)-1H-pyridazin-4-yl]amino]pentyl]-6-[5-(trifluoromethyl)pyrazin-2-yl]isoquinolin-1-one] | 0.3 | 136 |
| COc1cnc(-c2cc3ccn(CCC[C@H](C)Nc4cn[nH]c(=O)c4C(F)(F)F)c(=O)c3cc2F)nc1 [Example 22, (S)-7-fluoro-6-(5-methoxypyrimidin-2-yl)-2-(4-((6-oxo-5-(trifluoromethyl)-1,6-dihydropyridazin-4-yl)amino)pentyl)isoquinolin-1(2H)-one] | 0.4 | 71.3 |

Now those with a lower EC50 [1], led by results:

| IC50 (PARP7) [nM] | EC50 [1] [nM] | Structure (SMILES) |
| --- | --- | --- |
| 0.3 | 61.3 | C[C@@H](CCCn1ccc2cc(-c3ncc(C(F)(F)F)cn3)cc(F)c2c1=O)Nc1cn[nH]c(=O)c1C(F)(F)F [Example 7, 8-fluoro-2-[(4S)-4-[[6-oxo-5-(trifluoromethyl)-1H-pyridazin-4-yl]amino]pentyl]-6-[5-(trifluoromethyl)pyrimidin-2-yl]isoquinolin-1-one] |
| 0.2 | 19.2 | C[C@@H](CCCn1ccc2cc(-c3ncc(C(F)(F)F)cn3)c(F)cc2c1=O)Nc1cn[nH]c(=O)c1C(F)(F)F [Example 8, 7-fluoro-2-[(4S)-4-[[6-oxo-5-(trifluoromethyl)-1H-pyridazin-4-yl]amino]pentyl]-6-[5-(trifluoromethyl)pyrimidin-2-yl]isoquinolin-1-one] |
| 0.2 | 32.4 | C[C@@H](CCCn1ccc2cc(-c3ccc(C(F)(F)F)cn3)cc(F)c2c1=O)Nc1cn[nH]c(=O)c1C(F)(F)F [Example 11, 8-fluoro-2-[(4S)-4-[[6-oxo-5-(trifluoromethyl)-1H-pyridazin-4-yl]amino]pentyl]-6-[5-(trifluoromethyl)-2-pyridyl]isoquinolin-1-one] |
| 0.2 | 25.2 | CC(=O)c1c(N[C@@H](C)CCCn2ccc3cc(-c4ncc(C(F)(F)F)cn4)c(F)cc3c2=O)cn[nH]c1=O [Example 16, (S)-2-(4-((5-acetyl-6-oxo-1,6-dihydropyridazin-4-yl)amino)pentyl)-7-fluoro-6-(5-(trifluoromethyl)pyrimidin-2-yl)isoquinolin-1(2H)-one] |
| 0.3 | 14.6 | C[C@@H](CCCn1ccc2cc(-c3ncc(C(F)(F)F)cn3)c(F)c(F)c2c1=O)Nc1cn[nH]c(=O)c1C(F)(F)F [Example 20] |
| – | 1 | O=c1[nH]ncc(N[C@H](CCCn2cnc3cc(-c4nc5ccccn5n4)c(F)cc3c2=O)COC(F)F)c1C(F)(F)F [Example 490, (R)-7-([1,2,4]triazolo[1,5-a]pyridin-2-yl)-3-(5-(difluoromethoxy)-4-((6-oxo-5-(trifluoromethyl)-1,6-dihydropyridazin-4-yl)amino)pentyl)-6-fluoroquinazolin-4(3H)-one] |
| – | 50.5 | Cn1nc(-c2cc3ccn(C[C@@H]4CCC[C@H](Nc5cn[nH]c(=O)c5C(F)(F)F)C4)c(=O)c3cc2F)cc1C(F)(F)F [Example 491, 7-fluoro-6-[1-methyl-5-(trifluoromethyl)pyrazol-3-yl]-2-[[(1R,3S)-3-[[6-oxo-5-(trifluoromethyl)-1H-pyridazin-4-yl]amino]cyclohexyl]methyl]isoquinolin-1-one] |
| – | 7 | COc1cnc(-c2cc3ccn(C[C@@H]4CCC[C@H](Nc5cn[nH]c(=O)c5C(F)(F)F)C4)c(=O)c3cc2F)nc1 [Example 492, 7-fluoro-6-(5-methoxypyrimidin-2-yl)-2-[[(1R,3S)-3-[[6-oxo-5-(trifluoromethyl)-1H-pyridazin-4-yl]amino]cyclohexyl]methyl]isoquinolin-1-one] |
| – | 29 | O=c1[nH]ncc(N[C@H]2CCC[C@@H](Cn3ccc4cc(-c5ncc(OCCO)cn5)c(F)cc4c3=O)C2)c1C(F)(F)F [Example 495, 7-fluoro-6-[5-(2-hydroxyethoxy)pyrimidin-2-yl]-2-[[(1R,3S)-3-[[6-oxo-5-(trifluoromethyl)-1H-pyridazin-4-yl]amino]cyclohexyl]methyl]isoquinolin-1-one] |
| – | 5.5 | O=c1[nH]ncc(N[C@H]2CCC[C@@H](Cn3ccc4cc(-c5cc6c(cn5)C(F)(F)CC6)c(F)cc4c3=O)C2)c1C(F)(F)F [Example 496, 6-(7,7-difluoro-5,6-dihydrocyclopenta[c]pyridin-3-yl)-7-fluoro-2-[[(1R,3S)-3-[[6-oxo-5-(trifluoromethyl)-1H-pyridazin-4-yl]amino]cyclohexyl]methyl]isoquinolin-1-one] |
